Here are results for 17 molecules from ChEMBL document CHEMBL1250438, “Identification and evaluation of apoptotic compounds from Garcinia paucinervis” (Bioorg Med Chem, 2010).

In general, pIC50 refers to the IC50 on a negative log10 scale, so that one unit is a factor of ten.

What all share (assay type): functional, cell-based
The subject of assay [1] is HeLa C3. Description: Induction of apoptosis in human HeLaC3 cells assessed as reduction of yellow fluorescent protein/cyan fluorescent protein emission ratio below 3 at 100 uM after 72 hrs by FRET assay.
For assay [2], the system named is HeLa C3. Description: Induction of apoptosis in human HeLaC3 cells assessed as reduction of yellow fluorescent protein/cyan fluorescent protein emission ratio below 3 at 50 uM after 72 hrs by FRET assay.
The subject of assay [3] is HeLa C3. Nature of the assay: Induction of apoptosis in human HeLaC3 cells assessed as reduction of yellow fluorescent protein/cyan fluorescent protein emission ratio below 3 at 25 uM after 72 hrs by FRET assay.
The test system of assay [4] is HeLa C3. Nature of the assay: Induction of apoptosis in human HeLaC3 cells assessed as reduction of yellow fluorescent protein/cyan fluorescent protein emission ratio below 3 at 10 uM after 72 hrs by FRET assay.
The test system of assay [5] is HeLa. Nature of the assay: Cytotoxicity against human HeLa cells after 72 hrs by MTT assay.
Assay [6] deals with HeLa C3. Description: Induction of apoptosis in human HeLaC3 cells assessed as morphological changes at 25 uM after 24 to 72 hrs.
Assay [7] relates to HeLa C3. Nature of the assay: Induction of apoptosis in human HeLaC3 cells assessed as reduction of yellow fluorescent protein/cyan fluorescent protein emission ratio below 3 at 25 uM after 24 hrs by FRET assay.
The test system of assay [8] is HeLa C3. Nature of the assay: Induction of apoptosis in human HeLaC3 cells assessed as morphological changes at 500 nM after 24 to 72 hrs.
In assay [9] the test system is HeLa C3. Nature of the assay: Induction of apoptosis in human HeLaC3 cells at < 100 uM after 72 hrs.
The test system of assay [10] is HeLa C3. Description: Induction of apoptosis in human HeLaC3 cells at 50 to 100 uM after 72 hrs.
In assay [11] the test system is HeLa C3. Description: Induction of apoptosis in human HeLaC3 cells assessed as reduction of yellow fluorescent protein/cyan fluorescent protein emission ratio below 3 at 25 uM after 48 hrs by FRET assay.
Assay [12] has as its system HeLa. Description: Induction of apoptosis in human HeLa cells assessed as cleavage of PARP at 25 uM after 12 hrs by Western blotting. (Immunoblotting shows a protein as a band on a membrane.)
For assay [13], the system named is HeLa. Description: Induction of apoptosis in human HeLa cells assessed as cleavage of PARP at 25 uM after 36 hrs by Western blotting.

pIC50: −log10 of the molar value. Activity calls are given as the source filed them. The rule behind the calls is not given here.

`COc1c(O)c(CC=C(C)C)cc2c1Oc1cc(O)c(CC=C(C)C)c(O)c1C(=O)O2` [PAUCINERVIN A]: the result in the assay on HeLa C3 [1] was Active. Also, the outcome in the assay on HeLa C3 [2], with HeLa C3 [3] and in the assay on HeLa C3 [4] was inactive. The molecule further gave a pIC50 in the assay on HeLa [5] of 4.02.
As to `C=C(C)[C@@H]1C[C@]23C[C@H](CC=C(C)C)C(C)(C)[C@](CC=C(C)C)(C(=O)C(C(=O)c4ccc(O)c(O)c4)=C2O[C@H]1C=C(C)C)C3=O`, the outcome in the assay on HeLa C3 [1], with HeLa C3 [2], in the assay on HeLa C3 [3], in the assay on HeLa C3 [6] and in the assay on HeLa C3 [7] was Active. Also, the outcome in the assay with HeLa C3 [4] was inactive.
For the molecule `CC(=O)O[C@H]1C(=O)[C@@]2(C)[C@H]([C@H](OC(=O)c3ccccc3)[C@]3(O)C[C@H](OC(=O)[C@H](O)[C@@H](NC(=O)c4ccccc4)c4ccccc4)C(C)=C1C3(C)C)[C@]1(OC(C)=O)CO[C@@H]1C[C@@H]2O`, the outcome with HeLa C3 [8] was Active.
Regarding `CC(C)=CCC/C(C)=C/C[C@H]1C[C@]2(CC=C(C)C)C(=O)[C@@](CC=C(C)C)(C(=O)C(C(=O)c3ccc(O)c(O)c3)=C2O)[C@]1(C)CCC=C(C)C`, the result in the assay with HeLa C3 [1], with HeLa C3 [2], in the assay on HeLa C3 [3] and in the assay on HeLa C3 [6] was Active. In addition, the result with HeLa C3 [4] was inactive.
With `C=C(C)[C@H]1C/C=C(\C)CC/C=C(\C)CC/C=C(\C)CC1`, the outcome with HeLa C3 [1] was Active. The outcome in the assay with HeLa C3 [2], in the assay with HeLa C3 [3] and with HeLa C3 [4] was inactive.
Turning to `CC(C)=CCc1c(O)cc2oc3ccc(O)cc3c(=O)c2c1O`, the result with HeLa C3 [1], in the assay with HeLa C3 [2], in the assay on HeLa C3 [3] and in the assay with HeLa C3 [4] was inactive. In addition, the result in the assay with HeLa C3 [9] was Active.
Consider `C=CC(C)(C)c1c(OC)c(CC=C(C)C)c(O)c2c(=O)c3ccc(O)c(O)c3oc12`, for which the result with HeLa C3 [1] and with HeLa C3 [2] was Active. The result in the assay with HeLa C3 [3] and in the assay with HeLa C3 [4] was inactive.
With `CC1=C(C)C(=O)C(CCC(C)(O)CCCC(C)CCCC(C)CCCC(C)C)=C(C)C1=O` (configuration not stated), the result in the assay on HeLa C3 [1], in the assay with HeLa C3 [2], with HeLa C3 [3] and in the assay with HeLa C3 [4] was inactive. Further, the result in the assay on HeLa C3 [9] was Active.
Consider `CC(C)=CCC/C(C)=C/CC/C(C)=C/CCC1(C)CCc2c(C)ccc(O)c2O1` (configuration not stated), for which the result in the assay with HeLa C3 [1], in the assay with HeLa C3 [3] and in the assay on HeLa C3 [4] was inactive. Besides, in the assay with HeLa C3 [2], the outcome was Active.
For the molecule `CC(C)=CCC/C(C)=C/CC/C(C)=C/CCC1(C)CCc2c(C)cc(O)c(O)c2O1` (configuration not stated) [PAUCINERVIN D], the result with HeLa C3 [1] and in the assay on HeLa C3 [2] was Active. The outcome in the assay on HeLa C3 [3] and in the assay on HeLa C3 [4] was inactive. This molecule showed a pIC50 with HeLa [5] of 4.53.
In the case of `CC(C)=CC[C@H]1C[C@@]23C[C@@H](CC=C(C)C)C(C)(C)[C@@](CC=C(C)C)(C(=O)C(C(=O)c4ccc(O)c(O)c4)=C2OC1(C)C)C3=O`, the outcome in the assay with HeLa C3 [1], in the assay with HeLa C3 [2] and in the assay on HeLa C3 [4] was inactive. In addition, the result with HeLa C3 [3], in the assay with HeLa C3 [6], with HeLa C3 [7] and with HeLa C3 [10] was Active.
`CC1=CCCC(C)(C)C1CCC(C)CCCC(C)CCO` (configuration not stated): the outcome in the assay on HeLa C3 [1], in the assay on HeLa C3 [2], with HeLa C3 [3] and with HeLa C3 [4] was inactive.
For `CC1(C)C=Cc2c(c3ccoc3c3oc4c(O)cccc4c23)O1` [PAUCINERVIN C], the result in the assay on HeLa C3 [1] was Active. Moreover, the outcome in the assay with HeLa C3 [2], in the assay on HeLa C3 [3] and in the assay on HeLa C3 [4] was inactive. For the same molecule, in the assay with HeLa [5], the pIC50 is 4.28.
Turning to `CC(C)=CCc1cc2c(=O)c3c(O)c(CC=C(C)C)c(O)c(CC=C(C)C)c3oc2c(O)c1O`, the outcome with HeLa C3 [1] and in the assay on HeLa C3 [2] was Active. The outcome in the assay on HeLa C3 [3] and in the assay with HeLa C3 [4] was inactive.
Regarding `COC(=O)c1c(O)cc(O)cc1Oc1c(O)c(OC)cc(CC=C(C)C)c1OC` [PAUCINERVIN B], the outcome with HeLa C3 [1], with HeLa C3 [2], in the assay on HeLa C3 [3], with HeLa C3 [6], in the assay with HeLa C3 [11] and in the assay with HeLa [12] was Active. Also, in the assay on HeLa [13], the result was Active. Also, the result in the assay on HeLa C3 [4] was inactive. In the assay on HeLa [5], this molecule showed a pIC50 of 5.02.
`CC(C)=CCc1c(O)cc(O)c2c(=O)c3cc4c(c(O)c3oc12)OC(C)(C)C=C4`: the result in the assay on HeLa C3 [1], in the assay with HeLa C3 [2], in the assay with HeLa C3 [3] and in the assay on HeLa C3 [6] was Active. For the same molecule, the outcome in the assay with HeLa C3 [4] was inactive.
`CC1(C)C=Cc2c(cc3oc4c(O)c(O)ccc4c(=O)c3c2O)O1`: the result in the assay on HeLa C3 [1], in the assay on HeLa C3 [3], in the assay on HeLa C3 [4], with HeLa C3 [6], with HeLa C3 [11] and in the assay with HeLa C3 [10] was Active. Further, the outcome with HeLa [12] and in the assay on HeLa [13] was Active. In the assay with HeLa C3 [2], the result was inactive.
